This note sets out measurements from article PMC6684654 (Nature Communications, 2019).

In brackets after ≈: the same amount, converted by molar mass. Some results are limits rather than exact numbers.

Holding throughout (experiment): Antibiotic susceptibility (MIC), automated identification system
Assay type in all cases: cell-based

The test system of assay [1] is NDM-1 E. coli XJ141047. The conditions noted are these: Supplementary Table 1; for MIC: Escherichia coli. The source says:
(§1) Clinical isolate strains were identified and screened by the Phoenix 100 automated bacterial identification system to rapidly detect antimicrobial resistance. Total DNA was extracted by the TIANamp Bacteria DNA Kit according to the manufacturer’s protocol. The presence of blaNDM-1 was confirmed using a diagnostic kit for NDM-1 (Puruikang Bio Inc., Shenzhen, China) based on fluorescent quantitative polymerase chain reaction assay. According to the instruction, Ct values of less than 37 were considered positive.

In assay [2] the test system is NDM-1 K. pneumoniae XJ155019. The conditions noted are these: Supplementary Table 2; for MIC: Klebsiella pneumoniae.
Excerpt: as §1

For assay [3], the system named is K. pneumoniae ATCC13883. The following applies: Supplementary Table 2; for MIC: Klebsiella pneumoniae, ATCC13883.
Excerpt: as §1

The subject of assay [4] is NDM-1 K. pneumoniae XJ155017. The following applies: Supplementary Table 2; for MIC: Klebsiella pneumoniae.
Excerpt: as §1

In assay [5] the test system is NDM-1 K. pneumoniae XJ155020. The conditions noted are these: Supplementary Table 2; for MIC: Klebsiella pneumoniae.
Excerpt: as §1

In assay [6] the test system is NDM-1 K. pneumoniae XJ155018. The following applies: Supplementary Table 2; for MIC: Klebsiella pneumoniae.
Excerpt: as §1

For assay [7], the system named is NDM-1 E. coli XJ141015. The conditions noted are these: Supplementary Table 1; for MIC: Escherichia coli.
Excerpt: as §1

Assay [8] has as its system NDM-1 E. coli XJ141026. The conditions noted are these: Supplementary Table 1; for MIC: Escherichia coli.
Excerpt: as §1

For assay [9], the system named is E. coli ATCC25922. The following applies: Supplementary Table 1; for MIC: Escherichia coli, ATCC25922.
Excerpt: as §1

In general, MIC refers to the least concentration at which growth counts as inhibited. The low end stands for a more susceptible organism, the high end for a less susceptible organism.

In the case of `NCC[C@H](O)C(=O)N[C@@H]1C[C@H](N)[C@@H](O[C@H]2O[C@H](CN)[C@@H](O)[C@H](O)[C@H]2O)[C@H](O)[C@H]1O[C@H]1O[C@H](CO)[C@@H](O)[C@H](N)[C@H]1O` [Amikacin], the MIC in assay [1], in assay [2], in [3], in [4], in [5] and in [6] was at most 8 µg/mL each time. Also, the MIC in assay [7], in [8] and in assay [9] was at most 8 µg/mL each time. Moreover, the “susceptibility class (MIC)” value in assay [1], in assay [2], in [3], in assay [4], in assay [5] and in assay [6] was “S” in each case. Also, the “susceptibility class (MIC)” value in assay [7], in assay [8] and in assay [9] was “S” throughout.
On to `O=C(N[C@H](CO)[C@H](O)c1ccc([N+](=O)[O-])cc1)C(Cl)Cl` [Chloramphenicol], for which the minimum inhibitory concentration (MIC) is at most 4 µg/mL in assay [1]; over 16 µg/mL in assay [2]; at most 4 µg/mL in assay [3]; over 16 µg/mL in [4]; over 16 µg/mL in assay [5]; over 16 µg/mL in [6]. The MIC in assay [7] is over 16 µg/mL; in assay [8], at most 4 µg/mL; in [9] it was at most 4 µg/mL. The “susceptibility class (MIC)” value in [1] is “S”; in assay [2] it was “R”; in assay [3], “S”; in assay [4] it was “R”; in assay [5] it was “R”; in assay [6], “R”. In addition, the “susceptibility class (MIC)” value is “R” in [7], “S” in assay [8] and “S” in assay [9].
In the case of `C[C@H]1COc2c(N3CCN(C)CC3)c(F)cc3c(=O)c(C(=O)O)cn1c23` [Levofloxacin], the MIC in assay [1] was at most 1 µg/mL; in assay [2], over 8 µg/mL; in assay [3], at most 1 µg/mL; in assay [5] it was over 8 µg/mL; in [7], over 8 µg/mL; in assay [8], over 8 µg/mL. In addition, in assay [9], the minimal inhibitory concentration (MIC) is at most 1 µg/mL. Besides, the “susceptibility class (MIC)” value is recorded as “S” in assay [1]; “R” in assay [2]; “S” in assay [3]; “R” in assay [5]; “R” in assay [7]; “R” in assay [8]. The “susceptibility class (MIC)” value in assay [9] is reported as “S”.
`COc1c(N2C[C@@H]3CCCN[C@@H]3C2)c(F)cc2c(=O)c(C(=O)O)cn(C3CC3)c12` [Moxifloxacin]: the minimal inhibitory concentration (MIC) in assay [1] is at most 1 µg/mL; in assay [2], over 4 µg/mL; in assay [3] it was at most 1 µg/mL; in assay [4] it was over 4 µg/mL; in assay [5], over 4 µg/mL; in assay [6] it was over 4 µg/mL. The MIC was over 4 µg/mL in assay [7], over 4 µg/mL in assay [8] and at most 1 µg/mL in [9]. Besides, the “susceptibility class (MIC)” value in [1] is listed as “S”; in [2], “R”; in assay [3] it was “S”; in assay [4] it was “R”; in [5], “R”; in assay [6], “R”. Moreover, the “susceptibility class (MIC)” value in assay [7] was “R”; in assay [8] it was “R”; in [9], “S”.
As for `CC1(C)S[C@@H]2[C@H](NC(=O)[C@H](N)c3ccccc3)C(=O)N2[C@H]1C(=O)O` [Ampicillin], the MIC in assay [1] is over 16 µg/mL; in [2], over 16 µg/mL; in [3], 16 µg/mL (≈ 45.8 µM); in assay [4] it was over 16 µg/mL; in assay [5], over 16 µg/mL; in assay [6], over 16 µg/mL. Moreover, the MIC in assay [7] was over 16 µg/mL; in assay [8] it was over 16 µg/mL; in [9] it was at most 4 µg/mL. The “susceptibility class (MIC)” value in [1], in [2], in assay [3], in assay [4], in assay [5] and in assay [6] was “R” throughout. In addition, the “susceptibility class (MIC)” value is recorded as “R” in [7], “R” in assay [8] and “S” in assay [9].
With `CO/N=C(\C(=O)N[C@@H]1C(=O)N2C(C(=O)[O-])=C(C[N+]3(C)CCCC3)CS[C@H]12)c1csc(N)n1` [Cefepime], the MIC in [1] was over 16 µg/mL; in [2] it was over 16 µg/mL; in [3], at most 2 µg/mL; in [4], over 16 µg/mL; in assay [5], over 16 µg/mL; in assay [6], over 16 µg/mL. In addition, the MIC in assay [7] was over 16 µg/mL; in assay [8] it was over 16 µg/mL; in [9], at most 2 µg/mL. Moreover, the “susceptibility class (MIC)” value in assay [1] was “R”; in [2] it was “R”; in assay [3] it was “S”; in [4], “R”; in assay [5], “R”; in assay [6], “R”. For the same molecule, the “susceptibility class (MIC)” value is on record as “R” in assay [7], “R” in assay [8] and “S” in assay [9].
As to `CNC(C)C1CCC(N)C(OC2C(N)CC(N)C(OC3OCC(C)(O)C(NC)C3O)C2O)O1` (centres unmarked) [Gentamicin], the MIC in assay [1] is over 8 µg/mL; in [2], at most 2 µg/mL; in assay [3], at most 2 µg/mL; in assay [4], at most 2 µg/mL; in assay [5] it was at most 2 µg/mL; in [6] it was at most 2 µg/mL. Besides, the minimal inhibitory concentration (MIC) in [7] was at most 2 µg/mL; in assay [8] it was over 8 µg/mL; in assay [9], at most 2 µg/mL. Moreover, the “susceptibility class (MIC)” value was “R” in assay [1]; “S” in [2]; “S” in assay [3]; “S” in assay [4]; “S” in [5]; “S” in assay [6]. For the same molecule, the “susceptibility class (MIC)” value was “S” in [7], “R” in assay [8] and “S” in [9].
In the case of `CN(C)[C@@H]1C(O)=C(C(N)=O)C(=O)[C@@]2(O)C(O)=C3C(=O)c4c(O)cccc4[C@@](C)(O)[C@H]3C[C@@H]12` [Tetracycline], the minimum inhibitory concentration (MIC) in [1] is at most 2 µg/mL; in assay [2] it was over 8 µg/mL; in assay [3], at most 2 µg/mL; in assay [4], 4 µg/mL (≈ 9 µM); in assay [5], over 8 µg/mL; in assay [6] it was over 8 µg/mL. Also, the MIC is at most 2 µg/mL in [7], over 8 µg/mL in assay [8] and at most 2 µg/mL in assay [9]. Besides, the “susceptibility class (MIC)” value in assay [1] is given as “S”; in assay [2], “R”; in assay [3], “S”; in [4], “S”; in [5] it was “R”; in assay [6], “R”. Also, the results for the “susceptibility class (MIC)” value in assay [7], in [8] and in assay [9] were “S”, “R” and “S”, respectively.
As to `Cc1nnc(SCC2=C(C(=O)O)N3C(=O)[C@@H](NC(=O)Cn4cnnn4)[C@H]3SC2)s1` [Cefazolin], the MIC is over 16 µg/mL in assay [1]; over 16 µg/mL in assay [2]; at most 4 µg/mL in assay [3]; over 16 µg/mL in assay [4]; over 16 µg/mL in assay [5]; over 16 µg/mL in assay [6]. In addition, the results for the MIC in assay [7], in assay [8] and in [9] were over 16 µg/mL, over 16 µg/mL and at most 4 µg/mL, respectively. The “susceptibility class (MIC)” value is listed as “R” in assay [1]; “R” in assay [2]; “S” in assay [3]; “R” in [4]; “R” in assay [5]; “R” in assay [6]. Also, the “susceptibility class (MIC)” value is reported as “R” in assay [7], “R” in [8] and “S” in assay [9].
Consider `C[C@H]1[C@H](NC(=O)/C(=N\OC(C)(C)C(=O)O)c2csc(N)n2)C(=O)N1S(=O)(=O)O` [Aztreonam], for which the minimum inhibitory concentration (MIC) is over 16 µg/mL in assay [1]; over 16 µg/mL in assay [2]; at most 2 µg/mL in assay [3]; over 16 µg/mL in assay [4]; over 16 µg/mL in assay [5]; over 16 µg/mL in assay [6]. The minimum inhibitory concentration (MIC) was over 16 µg/mL in assay [7], over 16 µg/mL in assay [8] and at most 2 µg/mL in assay [9]. Besides, the “susceptibility class (MIC)” value in assay [1] was “R”; in [2], “R”; in assay [3], “S”; in assay [4] it was “R”; in [5], “R”; in assay [6], “R”. Moreover, the “susceptibility class (MIC)” value in assay [7] is on record as “R”; in assay [8] it was “R”; in assay [9], “S”.
